Experimental data reported in patent publication US12134610B2, “Somatostatin subtype-2 receptor (SST2R) targeted therapeutics and uses thereof” (priority 2022, dated 2024).
Read-outs that look alike come from different tables or passages of the source.

How the values were obtained:
Assay type in all cases: cell-based
[1] = target: T1, human somatostatin receptor subtype 2 (Homo sapiens, UniProt P30874); assay: Functional cAMP assay for SSTR2 agonists (HTRF) in CHO-K1 cells; conditions: CHO-K1 cells stably expressing human SST2, 20 min
T1 construct: expressed in transfected cells
Method in brief: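 Agonism scored as loss of NKH477 (1.6 μM)-driven cAMP, with IBMX present, after 20 min, 37° C. exposure of stably transfected CHO-K1 cells to compound dilutions (typically 0-10,000 nM). Lysates read by time-resolved FRET; cAMP interpolated from standard curve and EC50 derived.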

[2] = target: T2, SST2 (Homo sapiens, UniProt P30874); assay: PathHunter CHO-K1 SST2 internalization assay; conditions: PathHunter CHO-K1 SST2, 90 min
T2 construct: host or cells: PathHunter CHO-K1 SST2 cells
Method in brief: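 IC50 comes from four-parameter curves on background-corrected duplicates of Beta-Glo luminescence, read after 60 min at room temperature in the dark. Before that, CHO-K1 SST2 internalization cells (48 h post-seeding) received SMDC as eleven threefold dilutions, 10 uM highest final, for 90 min at 37 C.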

[3] = system: NCI-H524 (ATCC) human small cell lung cancer cells
Method in brief: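 CellTiter-Glo luminescence after a 2 h SMDC pulse (top dose 1 uM, 2-fold dilutions, 11 points), medium wash, then 70 h recovery. Cells were seeded at 5,000/well and dosed 24 h later. % inhibition vs control gave IC50 via four-parameter fit.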

T1 sequence (P30874 whole entry): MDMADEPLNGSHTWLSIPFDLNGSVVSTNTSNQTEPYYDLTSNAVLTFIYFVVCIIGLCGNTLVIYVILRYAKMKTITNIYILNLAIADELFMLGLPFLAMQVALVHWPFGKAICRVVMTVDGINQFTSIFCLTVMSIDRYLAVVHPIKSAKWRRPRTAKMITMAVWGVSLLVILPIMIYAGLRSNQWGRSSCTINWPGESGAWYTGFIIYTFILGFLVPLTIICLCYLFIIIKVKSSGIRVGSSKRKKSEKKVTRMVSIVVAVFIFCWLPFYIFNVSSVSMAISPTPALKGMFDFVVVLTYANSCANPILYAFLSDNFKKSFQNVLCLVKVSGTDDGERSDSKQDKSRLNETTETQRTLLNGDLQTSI
T2 sequence (P30874 whole entry): as above

**Q.** Which EC50 ([1]; read-out: hSST2 cAMP Avg EC50) does the source give for `CC[C@H](C)[C@@H]([C@@H](CC(=O)N1CCC[C@H]1[C@H](OC)[C@@H](C)C(=O)N[C@H](C)[C@@H](O)c1ccccc1)OC)N(C)C(=O)[C@@H](NC(=O)[C@H](C(C)C)N(C)C(=O)OCc1ccc(NC(=O)[C@H](CCCNC(N)=O)NC(=O)[C@@H](NC(=O)[C@H](CS(N)(=O)=O)NC(=O)CCOCCC(=O)NCCNc2ncc(-c3cc(C)cc(F)c3)c(N3CCC(N)CC3)c2-c2nc3ccc(Cl)cc3[nH]2)C(C)C)cc1C(=O)NCCN)C(C)C` [Compound 159] here?
**A.** Its EC50 is 0.3 nM.

**Q.** What about the EC50 ([2]; read-out: Internalization EC50) of the same compound?
**A.** Its EC50 is 10 nM.

**Q.** What about the EC50 ([3]; 2 h) of the same compound?
**A.** The EC50 was 2.6 nM.

**Q.** `CC[C@H](C)[C@@H]([C@@H](CC(=O)N1CCC[C@H]1[C@H](OC)[C@@H](C)C(=O)N[C@H](C)[C@@H](O)c1ccccc1)OC)N(C)C(=O)[C@@H](NC(=O)[C@H](C(C)C)N(C)C(=O)OCc1ccc(NC(=O)[C@H](CCCNC(N)=O)NC(=O)[C@@H](NC(=O)CCOCCC(=O)N[C@@H](CS(=O)(=O)O)C(=O)NCCNc2ncc(-c3cc(C)cc(F)c3)c(N3CCC(N)CC3)c2-c2nc3ccc(Cl)cc3[nH]2)C(C)C)cc1)C(C)C` [Compound 70] was tested. Which EC50 ([1]; read-out: hSST2 cAMP Avg EC50) did it give?
**A.** The EC50 was 0.44 nM.

**Q.** What about the EC50 ([2]; read-out: Internalization EC50) of the same compound?
**A.** Its EC50 is 17 nM.

**Q.** And the EC50 ([3]; 2 h)?
**A.** Its EC50 is 68 nM.

**Q.** How did the EC50 ([1]; read-out: hSST2 cAMP Avg EC50) turn out when `CC[C@H](C)[C@@H]([C@@H](CC(=O)N1CCC[C@H]1[C@H](OC)[C@@H](C)C(=O)N[C@H](C)[C@@H](O)c1ccccc1)OC)N(C)C(=O)[C@@H](NC(=O)[C@H](C(C)C)N(C)C(=O)OCc1ccc2cc1C(=O)NCCNC(=O)CC[C@H](NC(=O)CCOCCC(=O)NCCNc1ncc(-c3cc(C)cc(F)c3)c(N3CCC(N)CC3)c1-c1nc3ccc(Cl)cc3[nH]1)C(=O)N[C@@H](C(C)C)C(=O)N[C@@H](CCCNC(N)=O)C(=O)N2)C(C)C` [Compound 59] was run?
**A.** The EC50 was 0.35 nM.

**Q.** What about the EC50 ([2]; read-out: Internalization EC50) of the same compound?
**A.** The EC50 was 6.5 nM.

**Q.** What about the EC50 ([3]; 2 h) of the same compound?
**A.** Its EC50 is 14 nM.

**Q.** Which EC50 ([1]; hSST2 cAMP Avg EC50 (nM)) does the source give for `CCc1c2c(nc3ccc(OC(=O)NCCOCCOCCOCCOCCC(=O)NCCNc4ncc(-c5cc(C)cc(F)c5)c(N5CCC(N)CC5)c4-c4nc5ccc(Cl)cc5[nH]4)cc13)-c1cc3c(c(=O)n1C2)COC(=O)[C@]3(O)CC` [Compound 10, (19S)-10,19-diethyl-19-hydroxy-14,18-dioxo-17-oxa-3,13-diazapentacyclo[11.8.0.0^2,^11.0^4,^9.0^15,^20]henicosa-1(21),2,4(9),5,7,10,15(20)-heptaen-7-yl N-{14-[(2-{[4-(4-aminopiperidin-1-yl)-3-(6-chloro-1H-1,3-benzodiazol-2-yl)-5-(3-fluoro-5-methylphenyl)pyridin-2-yl]amino}ethyl)carbamoyl]-3,6,9,12-tetraoxatetradecan-1-yl}carbamate] here?
**A.** Its EC50 is 0.44 nM.

**Q.** What about the EC50 ([2]; Internalization EC50 (nM)) of the same compound?
**A.** The EC50 was 3.15 nM.

**Q.** And the EC50 ([3]; 2 h treatment, washout, additional 70 h, read-out: H524 EC50)?
**A.** The EC50 was 17.4 nM.

**Q.** For `COc1cc2cc(c1Cl)N(C)C(=O)CC(OC(=O)[C@@H](C)N(C)C(=O)CCSSCCC(=O)NCCNc1ncc(-c3cc(C)cc(F)c3)c(N3CCC(N)CC3)c1-c1nc3ccc(Cl)cc3[nH]1)[C@]1(C)OC1[C@@H](C)C1C[C@@](O)(NC(=O)O1)[C@H](OC)/C=C/C=C(\C)C2` (stereo partly drawn) [Compound 20, (2S,5S,6S,16E,18E,20R,21S)-11-chloro-21-hydroxy-12,20-dimethoxy-2,5,9,16-tetramethyl-8,23-dioxo-4,24-dioxa-9,22-diazatetracyclo[19.3.1.1^10,^14.0^3,^5]hexacosa-10,12,14(26),16,18-pentaen-6-yl (2R)-2-[3-({2-[(2-{[4-(4-aminopiperidin-1-yl)-3-(6-chloro-1H-1,3-benzodiazol-2-yl)-5-(3-fluoro-5-methylphenyl)pyridin-2-yl]amino}ethyl)-carbamoyl]ethyl}disulfanyl)-N-methylpropanamido]propanoate], which EC50 ([1]; read-out: hSST2 cAMP Avg EC50) is on record?
**A.** Its EC50 is 0.27 nM.

**Q.** And the EC50 ([2]; read-out: Internalization EC50)?
**A.** The EC50 was 6.3 nM.

**Q.** And the EC50 ([3]; 2 h)?
**A.** The EC50 was 31.6 nM.

**Q.** For `CC[C@H](C)[C@@H]([C@@H](CC(=O)N1CCC[C@H]1[C@H](OC)[C@@H](C)C(=O)N[C@H](C)[C@@H](O)c1ccccc1)OC)N(C)C(=O)[C@@H](NC(=O)[C@H](C(C)C)N(C)C(=O)OCc1ccc(NC(=O)[C@H](CCCNC(N)=O)NC(=O)[C@@H](NC(=O)CCCC(=O)N(C)CC(=O)N(C)CC(=O)N(C)CC(=O)N(C)CC(=O)N(C)CC(=O)NCCNc2ncc(-c3cc(C)cc(F)c3)c(N3CCC(N)CC3)c2-c2nc3ccc(Cl)cc3[nH]2)C(C)C)cc1)C(C)C` [Compound 97], which EC50 ([1]; read-out: hSST2 cAMP Avg EC50) is on record?
**A.** The EC50 was 0.3 nM.

**Q.** What about the EC50 ([2]; read-out: Internalization EC50) of the same compound?
**A.** The EC50 was 4.5 nM.

**Q.** What about the EC50 ([3]; 2 h) of the same compound?
**A.** Its EC50 is 35 nM.
